The source of these data is paper PMC8624998, “Synthesis and Antiproliferative Evaluation of 3-Chloroazetidin-2-ones with Antimitotic Activity: Heterocyclic Bridged Analogues of Combretastatin A-4” (Pharmaceuticals, 2021).

The test system of data set [1] is MCF-7 cells. As to conditions: MCF-7, 72 h; previously reported compounds, footnote g; cited from earlier work.
The test system of the next data set is SW480 cells. Put plainly: Cell viability assay, antiproliferative activity. The conditions noted are these: SW480, 10 μM. Format: cell-based, human. As for the experimental part: […]. The corresponding values for 10e in these cell lines were 161 nM (HL-60), 55 nM (SW480) and 135 nM (HT-29). […] […]. SW480 colon cells expressed low levels of the UDP-glucuronosyltransferase (UGT) protein compared to expression levels in HT-29 cells. […] […].
(§1) The human breast carcinoma cell line MCF-7 was purchased from the European Collection of Animal Cell Cultures (ECACC). Triple negative breast cancer Hs578T cells and its invasive variant Hs578Ts(i)8 were a kind gift from Dr. Susan McDonnell, School of Chemical and Bioprocess Engineering, University College Dublin. U266 cells were a gift from Dr. Tony McElligott, School of Medicine, St James’s Hospital, Trinity College Dublin. HT-29 cells were purchased from the European Collection of Cell Cultures (originating from a human adenocarcinoma of the colon). The human breast carcinoma cell line MDA-MB-231 and the HL-60 cells derived from a patient with acute myeloid leukaemia were both obtained from ECACC (Salisbury, UK). The SW-480 cells were a kind gift from Dr. Brian Flood, School of Biochemistry and Immunology, Trinity College Dublin. HEK-293T (normal epithelial embryonic kidney cells) were cultured in Dulbecco’s Modified Eagle’s Medium (DMEM) with GlutaMAXTM-I in the absence of non-essential amino acids. Human breast cancer MCF-7 cells and multiple myeloma U266 cells were cultured in Minimum Essential Media (MEM) with GlutaMAX™-I, supplemented with 1% (v/v) non-essential amino acids, 10% 2(v/v) foetal bovine serum (FBS) and 1% (v/v) penicillin/streptomycin 5000 U/mL. MDA-MB-231 cells were maintained in DMEM supplemented with 10% (v/v) foetal bovine serum, 2 mM L-glutamine and 100 μg/mL penicillin/streptomycin (complete medium). Colon cancer HT-29 and SW-480 and triple negative breast cancer Hs578T and its invasive variant Hs578T8i were cultured in DMEM with GlutaMAX™-I, with the same supplement in the absence of non-essential amino acids. Leukaemia HL-60 cancer cells were cultured in Roswell Park Memorial Institute Media (RPMI-1640) with GlutaMAX™-I, supplemented with 10% FCS media, and 100 μg/mL penicillin/streptomycin as above. Cell numbers were monitored using a haemocytometer. Cell culture flasks were incubated in a humidified incubator (5% CO2/95% air) at 37 °C. All cell lines were sub-cultured three times per week with trypsinisation using TrypLE Express (1X) required for adherent cell lines.
(§2) . All stock solutions and serial dilution in ethanol/DMSO were stored at -20 °C. All cells were seeded at a density of 2.5 × 10^4 cells/mL in a 96-well plate (200 μL per well). The cells were incubated in a […] atmosphere at 37 °C for 24 h, then treated with test compound (2 μL of stock solutions per 200-microlitre well) in ethanol to obtain a concentration range of 1 nM–200 μM for the study. The plates were then re-incubated for a further 72 h. Control wells contained an equivalent volume of the vehicle ethanol or DMSO (1% v/v). MTT cell viability assay: The culture medium was removed, and the cells were washed with phosphate buffered saline (PBS, […]). MTT (dissolved in PBS, […]) was added to obtain a final concentration of MTT (1 mg/mL). Cells were incubated at 37 °C for 3 h in the dark. Solubilisation was commenced by the addition of DMSO ([…]) and the cells were maintained at 20 °C in the dark for 20 min before reading the absorbance to ensure complete colour diffusion. The absorbance value of control cells (no added compound) was set to 100% cell viability and absorbance versus cell density per well was determined to assess cell viability using Graph-Pad Prism software. AlamarBlue cell viability assay: Cells were seeded in 96-well plates (e.g., MCF-7, 5 × 10^3 cells/well) and (HT-29 cells, 1 × 10^3 cells/well) and (HL-60 cells, 1 × 10^4 cells/well) with a total volume per well of 200 µL. After 24 h, cells were treated in triplicate with serial dilutions of CA-4 or β-lactam analogues (0.001–100 μM), medium alone or vehicle (1% ethanol (v/v)). […]

Data set [2] relates to MCF-7 cells. Description: Cell viability assay (MTT/AlamarBlue), antiproliferative activity. In kind it is cell-based, human. As to conditions: MCF-7, 72 h; for IC50: read-out: IC50 (MCF-7, 72 h).
Excerpt: […]. The introduction of the halogen substituent at C-3 was examined in an effort to investigate the effect on the activity of this substituent, and subsequently optimising the cytotoxic effects against MCF-7 human breast cancer cells.
as §1, §2
A general note: Resazurin is reduced to fluorescent resorufin, in cell work by metabolically active cells.

Data set [3] relates to MCF-7 cells. Description: Lactate dehydrogenase (LDH) assay for cytotoxicity. As to conditions: Homo sapiens, MCF7; MCF-7, compound concentration 10 μM, 24 h; read-out: Lactate Dehydrogenase assay: % cell lysis (cell death). Format: cell-based. As for the experimental part: The toxicity and selectivity of 10n towards normal cells was investigated in the non-tumourigenic cell line HEK-293T (normal human epithelial embryonic kidney cells). […] The cytotoxic effect of selected 3-chloro-β-lactams 10e, 10f, 10i, 10n and 3,3-dichloro-β-lactams 11e and 11n in MCF-7 cells was initially determined using the lactate dehydrogenase (LDH) assay.
The cytotoxicity of selected compounds was determined using the CytoTox 96 non-radioactive cytotoxicity assay (Promega Corporation, Madison, WI, USA). Briefly, MCF-7 cells were seeded in a 96-well plate (200 μL per well), at a density of 2.5 × 10^4 cells/mL, and incubated for 24 h. The cells were then treated with selected β-lactam compounds as described above for the cell viability assay. […] Supernatant (50 μL) was removed from each well to a 96-well plate. Reconstituted ‘CytoTox 96® Reagent (50 μL) was added to each well and the plate was placed in the dark at 20 °C for 30 min. ‘Stop solution’ (50 μL) was added to each well and the samples were analysed at 490 nm using a Dynatech MR5000 plate reader. The percentage cell death at 10 μM was calculated.

A further data set deals with MDA-MB-231 cells. Description: Cell viability assay, antiproliferative activity. Format: cell-based. The conditions noted are these: Homo sapiens; MDA-MB-231, 72 h; 10e and 11n results from NCI; read-out: Antiproliferative Activity IC50 MDA-MB-231, 72 h.
Excerpt: Selected β-lactam compounds were next evaluated in the triple negative cell line MDA-MB-231 (Table 4). […] These cancers are difficult to treat since they are generally not responsive to hormone therapies such as the selective oestrogen receptor modulator (SERM) tamoxifen, or aromatase inhibitors such as anastrozole, or to the monoclonal antibody Herceptin, which targets the HER2 receptor. There are fewer treatment options available for TNBC compared with ER+, PR+ and HER2+ breast cancers and the prognosis is poorer. […]. The human breast carcinoma cell line MCF-7 was purchased from the European Collection of Animal Cell Cultures (ECACC). Triple negative breast cancer Hs578T cells and its invasive variant Hs578Ts(i)8 were a kind gift from Dr. Susan McDonnell, School of Chemical and Bioprocess Engineering, University College Dublin. U266 cells were a gift from Dr. Tony McElligott, School of Medicine, St James’s Hospital, Trinity College Dublin. HT-29 cells were purchased from the European Collection of Cell Cultures (originating from a human adenocarcinoma of the colon). The human breast carcinoma cell line MDA-MB-231 and the HL-60 cells derived from a patient with acute myeloid leukaemia were both obtained from ECACC (Salisbury, UK). The SW-480 cells were a kind gift from Dr. Brian Flood, School of Biochemistry and Immunology, Trinity College Dublin. HEK-293T (normal epithelial embryonic kidney cells) were cultured in Dulbecco’s Modified Eagle’s Medium (DMEM) with GlutaMAXTM-I in the absence of non-essential amino acids. Human breast cancer MCF-7 cells and multiple myeloma U266 cells were cultured in Minimum Essential Media (MEM) with GlutaMAX™-I, supplemented with 1% (v/v) non-essential amino acids, 10% 2(v/v) foetal bovine serum (FBS) and 1% (v/v) penicillin/streptomycin 5000 U/mL. MDA-MB-231 cells were maintained in DMEM supplemented with 10% (v/v) foetal bovine serum, 2 mM L-glutamine and 100 μg/mL penicillin/streptomycin (complete medium). Colon cancer HT-29 and SW-480 and triple negative breast cancer Hs578T and its invasive variant Hs578T8i were cultured in DMEM with GlutaMAX™-I, with the same supplement in the absence of non-essential amino acids. Leukaemia HL-60 cancer cells were cultured in Roswell Park Memorial Institute Media (RPMI-1640) with GlutaMAX™-I, supplemented with 10% FCS media, and 100 μg/mL penicillin/streptomycin as above. Cell numbers were monitored using a haemocytometer. Cell culture flasks were incubated in a humidified incubator (5% CO2/95% air) at 37 °C. All cell lines were sub-cultured three times per week with trypsinisation using TrypLE Express (1X) required for adherent cell lines.
as §2, with “software.” for “software. AlamarBlue cell viability assay: Cells were seeded in 96-well plates (e.g., MCF-7, 5 × 10^3 cells/well) and (HT-29 cells, 1 × 10^3 cells/well) and (HL-60 cells, 1 × 10^4 cells/well) with a total volume per well of 200 µL. After 24 h, cells were treated in triplicate with serial dilutions of CA-4 or β-lactam analogues (0.001–100 μM), medium alone or vehicle (1% ethanol (v/v)).”

Like-named read-outs stand apart in the source and are kept apart here. Marks after values point to notes of the source that are not given here.

In general, IC50 refers to the concentration at which inhibition is half-maximal. Consider `COc1cc(N2C(=O)C(Cl)(Cl)C2c2ccc(SC)cc2)cc(OC)c1OC` (centres unmarked) [Compound 11i], for which, in the data set with MCF-7 cells [1], the half-inhibitory concentration (IC50) is 291 ± 30 nM.
Consider `CCOc1ccc(C2C(Br)C(=O)N2c2cc(OC)c(OC)c(OC)c2)cc1` (centres unmarked) [Compound 16b, 3-Bromo-4-(4-ethoxyphenyl)-1-(3,4,5-trimethoxyphenyl)azetidin-2-one], for which the “SW480 inhibition of cell viability” value with SW480 cells came to 50%. In addition, the IC50 in the data set on MCF-7 cells [2] (Homo sapiens, MCF7, 72 h) worked out at 1140 ± 300 nM.
`COc1ccc(C(=O)c2cc(OC)c(OC)c(OC)c2)cc1O` [Compound 3a, phenstatin, reference compound]: in the data set on MCF-7 cells [3], the cytotoxicity at 10 µM stood at 12%.
`COc1cc(N2C(=O)C(Cl)C2c2cccc3ccccc23)cc(OC)c1OC` (centres unmarked) [Compound 10j, 3-Chloro-1-(3,4,5-trimethoxyphenyl)-4-(naphthalen-1-yl)azetidin-2-one]: the cytotoxicity at 10 µM in the data set on MCF-7 cells [3] was determined as 4%. Also, in the data set with MCF-7 cells [2] (Homo sapiens, MCF7, 72 h), the IC50 is 14700 ± 2260 nM.
The melting point is the temperature of the solid-liquid transition. With `COc1cc(N2C(=O)C(Cl)C2c2ccc(OCc3ccccc3)cc2)cc(OC)c1OC` (centres unmarked) [Compound 10h, 4-(4-Benzyloxyphenyl)-3-chloro-1-(3,4,5-trimethoxyphenyl)azetidin-2-one], the melting point was in the range of 96 to 98 °C. Moreover, the IC50 in the data set on MCF-7 cells [2] (Homo sapiens, MCF7, 72 h) was found to be 59900 ± 6990 nM.
The corresponding values for `COc1cc(N2C(=O)C(Cl)(Cl)C2c2ccc(Oc3ccccc3)cc2)cc(OC)c1OC` (centres unmarked) [Compound 11g, 3,3-Dichloro-1-(3,4,5-trimethoxyphenyl)-4-(4-phenoxyphenyl)azetidin-2-one] are 82 to 84 °C and 62300 ± 10200 nM.
The corresponding values for `COc1cc(N2C(=O)C(Cl)(Cl)C2c2ccc(Br)cc2)cc(OC)c1OC` (centres unmarked) [Compound 11c, 4-(4-Bromophenyl)-3,3-dichloro-1-(3,4,5-trimethoxyphenyl)azetidin-2-one] are 150 to 152 °C and 18200 ± 1830 nM.
The corresponding values for `COc1cc(N2C(=O)C(Cl)(Cl)C2c2ccc3ccccc3c2)cc(OC)c1OC` (centres unmarked) [Compound 11k, 3,3-Dichloro-1-(3,4,5-trimethoxyphenyl)-4-(naphthalen-2-yl)azetidin-2-one] are 164 to 166 °C and 322 ± 40 nM.
On to `COc1ccc(C2C(Br)C(=O)N2c2cc(OC)c(OC)c(OC)c2)cc1O` (centres unmarked) [Compound 16j, 3-Bromo-4-(3-hydroxy-4-methoxyphenyl)-1-(3,4,5-trimethoxyphenyl) azetidin-2-one], for which, in the data set with SW480 cells, the “SW480 inhibition of cell viability” value amounted to 48%. In addition, the “inhibition of cell viability at a concentration of 10 μM” value (“inhibition of cell viability … of 10 μM” below) in the data set on MCF-7 cells [2] is on record as 40% (10 μM) ^c,i.
The molecule `CCOc1ccc(N2C(=O)C(Cl)(Cl)C2c2cc(OC)c(OC)c(OC)c2)cc1` (centres unmarked) [Compound 13b, 3,3-Dichloro-1-(4-ethoxyphenyl)-4-(3,4,5-trimethoxyphenyl)azetidin-2-one] showed a melting point of 133 to 134 °C. Further, in the data set on MCF-7 cells [2], the “inhibition of cell viability … of 10 μM” value is reported as 40% (10 μM)^c.
For `COc1cc(N2C(=O)C(Cl)C2c2ccc3ccccc3c2)cc(OC)c1OC` (centres unmarked) [Compound 10k, 3-Chloro-1-(3,4,5-trimethoxyphenyl)-4-(naphthalen-2-yl)azetidin-2-one], the 50% inhibitory concentration (IC50) amounted to 205 ± 34 nM with MDA-MB-231 cells; 200 nM with MCF-7 cells [2] (Homo sapiens, MCF7, 72 h); 202 ± 15 nM in the data set with MCF-7 cells [2].
`CCOc1ccc(N2C(=O)C(Cl)C2c2cc(OC)c(OC)c(OC)c2)cc1` (centres unmarked) [Compound 12b, 3-Chloro-1-(4-ethoxyphenyl)-4-(3,4,5-trimethoxyphenyl)azetidin-2-one] had a melting point of 113 to 115 °C. The “inhibition of cell viability … of 10 μM” value with MCF-7 cells [2] is 25% (10 μM) ^c.
